Reference: ChEMBL document CHEMBL3763035, “Neuroprotective profile of pyridothiazepines with blocking activity of the mitochondrial Na(+)/Ca(2+) exchanger” (Eur J Med Chem, 2016)
pIC50: −log10 of the molar value. Activity calls are given as the source filed them. The calls are words filed in the database; no cut-off is given here.

Tests used:
[1] = Neuroprotective activity against veratradine-induced neuronal cell death in bovine chromaffin cells assessed as cell viability at 10 uM after 24 hrs by LDH release assay relative to control; format: functional; details: Bos taurus, read-out: Activity
SH-SY5Y [2] = experiment: Neuroprotective activity against potassium ion-induced cytotoxicity in human SH-SY5Y cells assessed as cell viability at 3 uM pretreated for 24 hrs measured 24 hrs post potassium ion challenge by MTT assay relative to control; format: functional; details: read-out: Activity
SH-SY5Y [3] = experiment: Neuroprotective activity against rotenone/oligomycin A-induced oxidative stress in human SH-SY5Y cells assessed as cell viability at 0.3 uM pretreated for 24 hrs measured 24 hrs post rotenone/oligomycin challenge by MTT assay relative to control; format: functional; details: read-out: Activity
Hippocampus = experiment: Neuroprotective activity against glutamate-induced neuronal cell death in Sprague-Dawley rat brain hippocampal slices assessed as cell viability at 10 uM incubated 4 hrs by MTT assay relative to control; format: functional; details: read-out: Activity
Bos taurus [4] = species on record: Bos taurus; experiment: Inhibition of voltage gated calcium channel in bovine chromaffin cells assessed as blockade of depolarizing pulse-induced whole cell inward calcium currents by perforated patch clamp method; format: cell-based
SH-SY5Y [5] = experiment: Cytotoxicity in human SH-SY5Y cells assessed as ROS generation after 24 hrs by H2DCFDA/Hoechst dye based fluorescence assay; format: cell-based
[6] = biological target: T1, Mitochondrial sodium/calcium exchanger protein (Homo sapiens) (UniProt Q6J4K2); experiment: Inhibition of mitochondrial sodium/calcium exchanger in human HeLa cells assessed as increase in AUC of histamine-induced mitochondrial calcium at 3 uM after 36 to 48 hrs by aequorin staining based bioluminescence assay; format: cell-based
T1 sequence (whole entry): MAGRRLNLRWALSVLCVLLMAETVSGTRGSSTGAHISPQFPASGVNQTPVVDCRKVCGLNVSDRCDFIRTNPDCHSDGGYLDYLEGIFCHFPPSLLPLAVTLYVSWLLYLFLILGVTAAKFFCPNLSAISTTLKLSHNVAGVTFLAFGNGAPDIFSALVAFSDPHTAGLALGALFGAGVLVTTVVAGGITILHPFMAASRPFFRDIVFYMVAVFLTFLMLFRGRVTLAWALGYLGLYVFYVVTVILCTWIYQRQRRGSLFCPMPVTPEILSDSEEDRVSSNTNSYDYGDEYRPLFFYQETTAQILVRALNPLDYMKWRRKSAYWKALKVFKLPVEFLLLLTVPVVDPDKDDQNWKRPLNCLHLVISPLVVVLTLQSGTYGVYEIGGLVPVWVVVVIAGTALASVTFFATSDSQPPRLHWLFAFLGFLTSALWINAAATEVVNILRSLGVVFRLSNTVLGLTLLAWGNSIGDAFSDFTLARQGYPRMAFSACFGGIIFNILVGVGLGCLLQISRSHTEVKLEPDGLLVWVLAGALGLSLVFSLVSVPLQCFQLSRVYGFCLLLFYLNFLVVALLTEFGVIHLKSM

[7] = biological target: T1, Mitochondrial sodium/calcium exchanger protein (Homo sapiens); experiment: Inhibition of mitochondrial sodium/calcium exchanger in human HeLa cells assessed as increase in maximal peak of histamine-induced mitochondrial calcium at 3 uM after 36 to 48 hrs by aequorin staining based bioluminescence assay; format: cell-based
HeLa = experiment: Cytotoxicity against human HeLa cells assessed as reduction in cell viability at 0.3 to 30 uM after 24 hrs by MTT assay; format: cell-based
[8] = biological target: T1, Mitochondrial sodium/calcium exchanger protein (Homo sapiens); experiment: Inhibition of mitochondrial sodium/calcium exchanger in human HeLa cells assessed as reduction in decay rate of histamine-induced mitochondrial calcium at 3 uM after 36 to 48 hrs by aequorin staining based bioluminescence assay; format: cell-based
Bos taurus [9] = species on record: Bos taurus; experiment: Inhibition of sodium channel in bovine chromaffin cells assessed as blockade of inward sodium currents by perforated patch clamp method; format: cell-based
[10] = biological target: T1, Mitochondrial sodium/calcium exchanger protein (Homo sapiens); experiment: Inhibition of mitochondrial sodium/calcium exchanger in human HeLa cells assessed as reduction in clearance of histamine-induced mitochondrial calcium at 3 uM after 36 to 48 hrs by aequorin staining based bioluminescence assay; format: cell-based
[11] = biological target: T2, Mitochondrial sodium/calcium exchanger protein (Homo sapiens, UniProt Q6J4K2); experiment: Inhibition of mitochondrial sodium/calcium exchanger (unknown origin)
T2 sequence (Q6J4K2 whole entry): T1 sequence (whole entry)

SMILES | viability at 10 µM [1] [%] | viability at 3 µM (SH-SY5Y [2]) [%] | viability at 0.3 µM (SH-SY5Y [3]) [%] | viability at 10 µM (Hippocampus) [%] | also measured
O=C1CSC(c2ccccc2Cl)c2cc(Cl)cnc2N1 (stereo not given) | 22 | 33 | 11 | 27 | 
Cc1ccccc1C1SCC(=O)Nc2ncc(Cl)cc21 (stereo not given) | 14 | 20 | 21 | 27 | 
COc1ccc2[nH]cc(CCNC(C)=O)c2c1 [MELATONIN] |  |  | 27 |  | 
CC12CC3CC(C)(C1)CC(N)(C3)C2 [MEMANTINE] |  |  |  | 43 | 
COc1ccccc1C1SCC(=O)Nc2ncc(Cl)cc21 (stereo not given) | 27 | 17 | 19 | 13 | 
O=C1CSC(c2ccccc2C(F)(F)F)c2cc(Cl)cnc2N1 (stereo not given) | 17 | 19 | 18 | 42 | 
O=C1CSC(c2ccc(F)cc2)c2cc(Cl)cnc2N1 (stereo not given) | 22 | 27 | 24 | 20 | inhibition (Bos taurus [4]): inactive; Activity (SH-SY5Y [5]): Non-toxic; inhibition [6]: Active; inhibition [7]: Active; Activity (HeLa): Non-toxic; inhibition [8]: Active; inhibition (Bos taurus [9]): inactive
CCOc1ccccc1C1SCC(=O)Nc2ncc(Cl)cc21 (stereo not given) | 17 | 28 | 26 | 11 | 
O=C1CSC(c2ccccc2)c2cc(Cl)cnc2N1 (stereo not given) | 6 | 21 | 30 | 33 | inhibition [8]: Active
CC(C)c1ccccc1C1SCC(=O)Nc2ncc(Cl)cc21 (stereo not given) | 49 | 28 | 19 | 33 | 
COc1ccc(C2SCC(=O)Nc3ncc(Cl)cc32)cc1 (stereo not given) | 27 | 10 | 23 | 34 | 
O=C1CSC(c2ccccc2Br)c2cc(Cl)cnc2N1 (stereo not given) | 23 | 30 | 21 | 28 | inhibition [10]: inactive; inhibition [8]: Active
O=C1CSC(c2ccccc2Cl)c2cc(Cl)ccc2N1 (stereo not given) | 76 | 36 | 18 | 37 | inhibition (Bos taurus [4]; dose or concentration not given here): 37%; inhibition [8]: Active; pIC50 [11]: 5.80
COC(=O)C1=C(C)NC(C)=C(C(=O)OC)C1c1ccccc1[N+](=O)[O-] [NIFEDIPINE] |  | 24 |  |  | 
